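Tested at 5 concentrations; 48 h exposure; 96-well plates; endpoints linearly interpolated, else capped at highest concentration. GI50 marks 50% less growth.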 Calls of active or inactive are those of the source. Cut-off read from the data, not from the text of the source: active = GI50 up to about 1.1 µM and inactive = higher.

Among the test systems are ACHN; CAKI-1; CCRF-CEM; HCT-116; HCT-15; K562; KM12; M14; MOLT-4; Malme-3M; OVCAR-4; RPMI-8226; SF-295; SR; TK-10; U-251; UACC-257; 786-0; NCI-H522.
Assay in all cases: NCI anticancer screen, dose series, 48 h

Turning to `CC1CCN(c2cc(-c3cc4ccccc4o3)oc(=O)c2C#N)CC1`, the GI50 in the experiment with ACHN was > 100 µM (inactive); in the experiment on CAKI-1, 19.9 µM (inactive); in the experiment with CCRF-CEM, > 100 µM (inactive); with HCT-116 it was > 100 µM (inactive); in the experiment on HCT-15, above 100 µM; in the experiment on K562 it was > 100 µM (inactive). For the same molecule, the GI50 in the experiment on KM12 was > 100 µM (inactive); in the experiment on M14 it was > 100 µM (inactive); with MOLT-4 it was > 100 µM (inactive); with Malme-3M it was > 100 µM (inactive); with OVCAR-4 it was 18.8 µM (inactive); in the experiment with RPMI-8226, > 100 µM (inactive). Further, the GI50 in the experiment with SF-295 is 68.9 µM (inactive); in the experiment with SR it was > 100 µM (inactive); with TK-10 it was > 100 µM (inactive); in the experiment with U-251, > 100 µM (inactive); with UACC-257, > 100 µM (inactive).
As to `CC(=O)Nc1ccc(C(=O)N2N=C(C)/C(=C/c3cccc(O)c3)C2=O)cc1`, the GI50 was > 100 µM (inactive) in the experiment with 786-0; > 100 µM (inactive) with ACHN; > 100 µM (inactive) with CAKI-1; > 100 µM (inactive) in the experiment on CCRF-CEM; > 100 µM (inactive) with HCT-116; above 100 µM with HCT-15. Moreover, the GI50 in the experiment with K562, in the experiment on M14, in the experiment on MOLT-4, in the experiment on Malme-3M, in the experiment with NCI-H522 and with OVCAR-4 was > 100 µM (inactive) in each case. For the same molecule, the GI50 with SF-295, in the experiment with TK-10, in the experiment on U-251 and with UACC-257 was > 100 µM (inactive) each time.
Take `COc1cc2c3cc1Oc1c(O)c(OC)cc4c1C(Cc1ccc(O)c(c1)Oc1ccc(cc1)CC3N(C)CC2)N(C)CC4` (centres undefined): the GI50 is 13.2 µM (inactive) in the experiment on 786-0; 19 µM (inactive) in the experiment on ACHN; 17.3 µM (inactive) in the experiment with CAKI-1; 8.57 µM (inactive) in the experiment with CCRF-CEM; 6.55 µM (inactive) with HCT-116; 11.6 µM in the experiment on HCT-15. Besides, the GI50 in the experiment on K562 is 3.03 µM (inactive); in the experiment with KM12, 11.1 µM (inactive); with M14, 3.11 µM (inactive); with MOLT-4, 8.34 µM (inactive); with Malme-3M, 18.2 µM (inactive); in the experiment with NCI-H522, 15.1 µM (inactive). For the same molecule, the GI50 in the experiment on OVCAR-4 is 13.8 µM (inactive); with RPMI-8226, 15.1 µM (inactive); with SF-295, 16.1 µM (inactive); with TK-10 it was 13.6 µM (inactive); in the experiment with U-251, 14.2 µM (inactive); in the experiment on UACC-257, 18.6 µM (inactive).
For `COCOc1ccc(OC)cc1`, the GI50 with CAKI-1 was > 100 µM (inactive); with CCRF-CEM, > 100 µM (inactive); in the experiment on HCT-116, > 100 µM (inactive); in the experiment on HCT-15, above 100 µM; in the experiment with K562, > 100 µM (inactive); with KM12, > 100 µM (inactive). For the same molecule, the GI50 in the experiment with MOLT-4, in the experiment with Malme-3M, with OVCAR-4, in the experiment on RPMI-8226, in the experiment with SF-295 and in the experiment on U-251 was > 100 µM (inactive) in each case. In addition, the GI50 with UACC-257 is > 100 µM (inactive).
With `Cc1cccc(NC(=O)C(=O)C(C(=O)c2ccccc2F)C2OC(=O)c3ccccc32)c1Cl` (centres undefined), the GI50 in the experiment with ACHN was 53.1 µM (inactive); in the experiment with CAKI-1, 61.4 µM (inactive); in the experiment with CCRF-CEM, 23.3 µM (inactive); in the experiment on HCT-116, 20.3 µM (inactive); in the experiment with HCT-15 it was 22.4 µM; in the experiment on K562, 28.6 µM (inactive). Also, the GI50 in the experiment on KM12 is 25 µM (inactive); in the experiment on M14, 43.1 µM (inactive); in the experiment with MOLT-4 it was 30.3 µM (inactive); in the experiment with NCI-H522 it was 22.4 µM (inactive); in the experiment on OVCAR-4, 43.9 µM (inactive); in the experiment with RPMI-8226, 26.9 µM (inactive). In addition, the GI50 in the experiment with SF-295 was 36.4 µM (inactive); in the experiment with SR it was 26.5 µM (inactive); in the experiment on TK-10, 63 µM (inactive); in the experiment on U-251, 14.5 µM (inactive); in the experiment on UACC-257, 51.4 µM (inactive).
In the case of `O=[N+]([O-])c1cc(C(F)(F)F)cc2c1SC1=Nc3ccccc3CN12`, the GI50 with CAKI-1 is > 100 µM (inactive); with CCRF-CEM, > 100 µM (inactive); with HCT-116, > 100 µM (inactive); in the experiment on HCT-15, above 100 µM; in the experiment on K562, > 100 µM (inactive); in the experiment with KM12 it was > 100 µM (inactive). For the same molecule, the GI50 in the experiment with MOLT-4, with Malme-3M, in the experiment with NCI-H522, with OVCAR-4, in the experiment on RPMI-8226 and with SF-295 was > 100 µM (inactive) throughout. For the same molecule, the GI50 in the experiment on U-251 and with UACC-257 was > 100 µM (inactive) each time.
Turning to `N#Cc1ccc([N+](=O)[O-])cc1NC(N)=S`, the GI50 in the experiment with CAKI-1 is > 100 µM (inactive); in the experiment with HCT-116, > 100 µM (inactive); in the experiment on HCT-15, above 100 µM; in the experiment on KM12 it was > 100 µM (inactive); with M14, > 100 µM (inactive); with MOLT-4, > 100 µM (inactive). In addition, the GI50 in the experiment with Malme-3M, in the experiment with NCI-H522, with RPMI-8226, with SF-295, in the experiment with SR and in the experiment on U-251 was > 100 µM (inactive) in each case.
On to `CC1(c2ccc(F)cc2)C(C#N)C(=O)NC(=O)C1C#N` (centres undefined), for which the GI50 in the experiment with 786-0 is > 100 µM (inactive); with ACHN, > 100 µM (inactive); with CAKI-1, > 100 µM (inactive); with CCRF-CEM, > 100 µM (inactive); in the experiment on HCT-15, above 100 µM; in the experiment with K562, > 100 µM (inactive). The GI50 in the experiment on KM12, in the experiment on M14, in the experiment on MOLT-4, in the experiment on Malme-3M, in the experiment with NCI-H522 and in the experiment on OVCAR-4 was > 100 µM (inactive) each time. Further, the GI50 in the experiment on RPMI-8226, in the experiment with SF-295, with TK-10 and in the experiment with UACC-257 was > 100 µM (inactive) throughout.
Consider `CC/C=C\C/C=C\C/C=C\CCCCCCCC(=O)OCC`, for which the GI50 with 786-0, with ACHN, with CAKI-1, with CCRF-CEM, in the experiment with HCT-116 and in the experiment on K562 was > 100 µM (inactive) throughout. In addition, the GI50 in the experiment with KM12 is > 100 µM (inactive); with M14 it was > 100 µM (inactive); with MOLT-4 it was 87.1 µM (inactive); in the experiment with Malme-3M, > 100 µM (inactive); in the experiment on OVCAR-4 it was > 100 µM (inactive); in the experiment with RPMI-8226 it was 70.6 µM (inactive). The GI50 in the experiment with SF-295, in the experiment with SR, in the experiment on TK-10, with U-251 and in the experiment with UACC-257 was > 100 µM (inactive) each time.
`S=P1(Oc2ccccc2)NNP2(=NP(N3CC3)(N3CC3)=NP(N3CC3)(N3CC3)=N2)NN1` (centres undefined): the GI50 in the experiment with 786-0 was > 100 µM (inactive); with ACHN it was > 100 µM (inactive); in the experiment on CAKI-1, > 100 µM (inactive); with CCRF-CEM, 38.9 µM (inactive); in the experiment on HCT-116, > 100 µM (inactive); in the experiment with HCT-15 it was above 100 µM. For the same molecule, the GI50 in the experiment with K562 was > 100 µM (inactive); with KM12 it was > 100 µM (inactive); in the experiment on MOLT-4 it was 19.6 µM (inactive); in the experiment on Malme-3M, > 100 µM (inactive); in the experiment with NCI-H522, > 100 µM (inactive); in the experiment on OVCAR-4, > 100 µM (inactive). Also, the GI50 in the experiment with RPMI-8226 was > 100 µM (inactive); with SF-295, > 10 µM (inactive); in the experiment with TK-10, > 100 µM (inactive); with U-251, > 100 µM (inactive); in the experiment with UACC-257, > 100 µM (inactive).
In the case of `c1ccc(C2N=C(c3ccccn3)C(c3ccccn3)=NC2c2ccccc2)cc1` (centres undefined), the GI50 in the experiment with 786-0 was > 100 µM (inactive); with ACHN, > 100 µM (inactive); in the experiment on CAKI-1 it was > 100 µM (inactive); in the experiment on CCRF-CEM, > 100 µM (inactive); with HCT-116 it was > 100 µM (inactive); with HCT-15, above 100 µM. For the same molecule, the GI50 in the experiment on K562, with KM12, in the experiment with M14, with MOLT-4, in the experiment with Malme-3M and with NCI-H522 was > 100 µM (inactive) in each case. Moreover, the GI50 in the experiment with OVCAR-4, with RPMI-8226, in the experiment with SF-295, with TK-10, with U-251 and with UACC-257 was > 100 µM (inactive) each time.
For `CCOC(=O)Nc1ccc(S(=O)(=O)OC)cc1.CCOC(=O)Nc1ccc(S(=O)(=O)OC)cc1.Cc1cn(C2CC(O)C(CO)O2)c(=O)[nH]c1=O`, the GI50 in the experiment on 786-0 was 35.4 µM (inactive); in the experiment on ACHN, > 100 µM (inactive); in the experiment on CAKI-1 it was > 100 µM (inactive); in the experiment on CCRF-CEM, 87.1 µM (inactive); in the experiment on HCT-116, 10 µM (inactive); with HCT-15, 18.6 µM. The GI50 was 34.2 µM (inactive) in the experiment with K562; > 100 µM (inactive) with KM12; > 100 µM (inactive) with M14; > 100 µM (inactive) in the experiment with MOLT-4; > 100 µM (inactive) in the experiment on Malme-3M; 86.3 µM (inactive) in the experiment on OVCAR-4. The GI50 with RPMI-8226 is 36.5 µM (inactive); in the experiment with SF-295 it was > 100 µM (inactive); in the experiment with TK-10, > 100 µM (inactive); with UACC-257, > 100 µM (inactive).
As to `N/C(=N\O)N/N=C/c1ccc2c(c1)OCCO2`, the GI50 is 16.4 µM (inactive) in the experiment on CAKI-1; 33.7 µM (inactive) in the experiment on CCRF-CEM; 21.7 µM (inactive) in the experiment with HCT-116; 10.3 µM with HCT-15; 7.85 µM (inactive) with K562; 5.04 µM (inactive) in the experiment with KM12. In addition, the GI50 in the experiment on MOLT-4 is 19.1 µM (inactive); in the experiment with NCI-H522, 6.65 µM (inactive); with OVCAR-4, 8.91 µM (inactive); with RPMI-8226 it was 16.8 µM (inactive); with SF-295 it was 6.59 µM (inactive); in the experiment with U-251 it was 21.3 µM (inactive). Besides, the GI50 in the experiment with UACC-257 is 18.6 µM (inactive).

Source of the values: ChEMBL document CHEMBL1201862, “PubChem BioAssay data set” (2004).
